Assay results from US10702575B2, “Pharmaceutical composition for preventing or treating mycobacterium species infection and method using the same” (Seoul National University R&DB Foundation, priority 2017, dated 2020).
Values after ≈ are worked out from the molar mass of the structure shown. *1 amine or outer side, *2 acyl side, *3 side chain or, on linkers, in order; H or OH if unused. Where a SMILES comes first, the peptide text is derived from it. Bridges are numbered along the chain shown (N, C = ends). [ ]: non-standard residue; d: D form. The star is where a group is joined. ξ: configuration not given here. NMeTrp(4-OMe) = CN[CH](Cc1c[nH]c2cccc(OC)c12)C(=O)O; X1 = O=C(C(N[*:1])C(O)c1ccccc1)[*:2]; ξNMe2Val = CC(C)C(C(=O)*)N(C)C; NMeT = CN[CH](C(=O)O)[CH](C)O; NMeL = CN[CH](CC(C)C)C(=O)O; NMeV = CN[CH](C(=O)O)C(C)C

Tests used:
[1] = system: Mtb H37Rv strain; assay type: cell-based, Mycobacterium tuberculosis; conditions: REMA; for anti-Mycobacterium tuberculosis activity as compared with INH, EMB, and SQ109 (FIG. 2): RFU vs concentration
[2] = system: Bone-marrow-derived macrophages (BMDM); assay: LC3 puncta formation assay in macrophage; assay type: cell-based, mouse; conditions: 10 μM, about 24 hours
Procedure: LC3 puncta formation and lipidation assay (Eisuke and Noboru, Autophagy, 2010, vol. 6, p. 764-776), which is mainly used in macrophage autophagy measurement, was performed. 10 μM of OMS-A or 10 μM of OMS-B was added to BMDM prepared in Section 4, and then cultured for about 24 hours. As a negative control, PBS was used. Subsequently, macrophage was stained with 4′,6-diamidino-2-phenylindole (DAPI, available from Sigma) and anti-LC3 antibody (available from Cell Signaling), and the number of LC3 puncta per macrophage was measured. The images of the stained macrophages are shown in FIG. 6A (“UN” represents “untreated”), and the number of LC3 puncta per macrophage are shown in FIG. 6B (**: p<0.01).

[3] = system: LC3; assay: LC3 immunoblotting of macrophage cytolysate; assay type: cell-based, mouse; conditions: for amount of LC3-II (FIG. 7A): 1 μM, 5 μM, 10 μM, about 24 hours, macrophage; for amount of LC3-II after pre-treatment, compared with treatment with OMS-A or OMS-B (FIG. 7B): pre-treatment with 10 μM 3-MA or 100 nM Baf-A before OMS-A or OMS-B
Procedure: The obtained cytolysate was subjected to immunoblotting using anti-LC3 antibody (available from Cell Signaling) and anti-β-actin antibody (available from Santa Cruz). The results thereof are shown in FIG. 7A (“U” represents “untreated”). Further, in the case of pre-treatment of a macrophage with 10 μM of 3-methyladenine (3-MA), which is an autophagy inhibitor, or 100 nM of Bafilomycin A1 (Baf-A), which is an H^+-ATPase inhibitor, the immunoblot images of the macrophage are shown in FIG. 7B (“U” represents “untreated”, and “SC” represents “solvent control”).

[4] = system: LC3B; assay: flow cytometry of macrophage with anti-LC3B antibody; assay type: cell-based, mouse; conditions: 10 μM, about 24 hours
Procedure: Subsequently, a mean fluorescence intensity (MFI) of the macrophage was measured using the anti-LC3B antibody (available from Cell Signaling) according to flow cytometry.

[5] = system: Mtb phagosome; assay: co-localization of Mtb phagosome with LC3 or LAMP2 in macrophage; assay type: cell-based, mouse; conditions: 10 μM, about 24 hours, ERFP-Mtb macrophage
[6] = system: AMP-activated protein kinase (AMPK) cell signaling pathway; assay type: cell-based, mouse
[7] = system: NF-κB; assay type: cell-based, mouse; conditions: 1 μM, 5 μM, 10 μM, about 6 hours
[8] = system: macrophage; assay: mCherry-EGFP-LC3B autophagic flux in transfected macrophage; conditions: 10 μM, about 24 hours
Source text: Further, a macrophage was transfected with a retrovirus vector that expresses mCherry-enhanced green fluorescent protein (EGFP)-LC3B. […] Fluorescent images of the transfected macrophage were obtained, which are shown in FIG. 9 (“UN” represented “untreated”, and “N” represents “nucleus”).

[9] = system: M. marinum; assay: Mycobacterium marinum-Drosophila melanogaster infection system; assay type: in vivo; conditions: for viability of Drosophila melanogaster infected with M. marinum (FIG. 5A): OMS-A 1 μM or 10 μM, AMK 1 μg/ml in culture medium, about 30 days

Row | SMILES | MIC50 (bacterial growth 50% MIC) [1] | anti-Mycobacterium tuberculosis activity as compared with INH, EMB, and SQ109 (FIG. 2) [1] | LC3 puncta formation per macrophage (FIGS. 6A, 6B) [2] | amount of LC3-II (FIG. 7A) [3] | LC3B expression, mean fluorescence intensity (FIG. 8) [4] | co-localization of LAMP2 and Mtb phagosome (FIGS. 10C, 10D) [5] | co-localization of LC3 and Mtb phagosome (FIGS. 10A, 10B) [5] | phoshorylation in Ser78 (S79) of ACC (FIGS. 11A, 11B) [6] | phoshorylation in Thr172 of AMPKα (FIGS. 11A, 11B) [6] | NF-κB luciferase activity (FIG. 12B) [7] | number of red puncta, mCherry-EGFP-LC3B (FIG. 9) [8] | amount of LC3-II after pre-treatment, compared with treatment with OMS-A or OMS-B (FIG. 7B) [3] | viability of Drosophila melanogaster infected with M. marinum (FIG. 5A) [9] | CFUs of M. marinum present in Drosophila melanogaster (FIG. 5B) ([9]; 1 μM or 10 μM OMS-A, compared with negative control (SC))
1 | COc1cccc2[nH]cc(CC3C(=O)NC(C(C)C)C(=O)NC(C(O)c4ccccc4)C(=O)NC(C(C)C)C(=O)OC(C)C(NC(=O)C(NC(=O)C(C(C)C)N(C)C)C(C)C)C(=O)N(C)C(C(C)O)C(=O)NC(C(C)C)C(=O)N(C)C(CC(C)C)C(=O)NC(C(C)C)C(=O)N(C)C(C(C)C)C(=O)N3C)c12 (stereo not drawn) [OMS-B, Ohmyungsamycin B] (ξNMe2Val-VT[NMeT]V[NMeL]V[NMeV][NMeTrp(4-OMe)]V[X1]V; ester 2-C; configuration not given here) | 0.117 µM (≈ 0.172 µg/mL) | excellent anti-Mycobacterium tuberculosis activity | great | increased as compared with LC3-I | increased level | increased | increased | induced | induced | decreases in a concentration-dependent manner | increased | – | – | –
2 | CO/C1=C\C(C)=C\[C@@H](C)[C@@H](O)[C@@H](C)C/C(C)=C/C=C/[C@H](OC)[C@@H]([C@@H](C)[C@@H](O)[C@H](C)[C@@]2(O)C[C@@H](O)[C@H](C)[C@@H](C(C)C)O2)OC1=O [Baf-A, Bafilomycin A1, reference compound] | – | – | – | – | – | – | – | – | – | – | – | increased | – | –
3 | NCC[C@H](O)C(=O)N[C@@H]1C[C@H](N)[C@@H](O[C@H]2O[C@H](CN)[C@@H](O)[C@H](O)[C@H]2O)[C@H](O)[C@H]1O[C@H]1O[C@H](CO)[C@@H](O)[C@H](N)[C@H]1O [AMK, amikacin, reference compound] | – | – | – | – | – | – | – | – | – | – | – | – | increased viability | –
4 | Cn1cnc(N)c2ncnc1-2 [3-MA, 3-methyladenine, reference compound] | – | – | – | – | – | – | – | – | – | – | – | decreased | – | –
5 | CNC(C(=O)NC(C(=O)NC1C(=O)N(C)C(C(C)O)C(=O)NC(C(C)C)C(=O)N(C)C(CC(C)C)C(=O)NC(C(C)C)C(=O)N(C)C(C(C)C)C(=O)N(C)C(Cc2c[nH]c3cccc(OC)c23)C(=O)NC(C(C)C)C(=O)NC(C(O)c2ccccc2)C(=O)NC(C(C)C)C(=O)OC1C)C(C)C)C(C)C (stereo not drawn) [OMS-A, Ohmyungsamycin A] (H-[NMeV]VT[NMeT]V[NMeL]V[NMeV][NMeTrp(4-OMe)]V[X1]V; ester 3-C; configuration not given here) | 0.057 µM (≈ 0.0832 µg/mL) | excellent anti-Mycobacterium tuberculosis activity | great | increased as compared with LC3-I | increased level | increased | increased | induced | induced | decreases in a concentration-dependent manner | increased | – | increased viability | decreased in a concentration-dependent manner
